Source: US8969336B2, “Diamino heterocyclic carboxamide compound” (Astellas Pharma Inc., priority 2009, dated 2015)

Legend:
[1] = system: human non-small cell lung cancers cell line NCI-H2228 cells; test: Antitumor test (in vivo) on NCI-H2228 cells; conditions: oral administration, NOD/SCID mice, Student's t-test
Source text: The antitumor effects on EML4-ALK fusion protein-dependent cells can also be confirmed by use of human non-small cell lung cancers cell line NCI-H2228 cells (cells derived from EML4-ALK fusion polynucleotide-positive lung cancer patients (EML4-ALK fusion protein v3-dependent cells)) in place of the EML4-ALK fusion protein v1 expressing 3T3 cells of Test Example 3, as shown below.
3×10^6 cells of NCI-H2228 cells suspended in 50% Matrigel (Invitrogen) were inoculated subcutaneously by injection to the back of 5 weeks old male NOD/SCID mice (Charles River Japan, Inc.). After 3 weeks of the inoculation, the administration of test compounds was initiated. The test was conducted in the solvent group and test compound groups, 6 animals per group. The test compounds were each dissolved in a solvent composed of 10% 1-methyl-2-pyrrolidinone (SIGMA-ALDRICH Inc.)/90% polyethylene glycol 300 (Fluka Inc.) and administered orally at a dose of 1 mg/kg. Administrations were performed once a day for 14 days, and body weight and tumor size were measured every other day. Tumor volume was calculated using the following formula. [Tumor volume(mm^3)]=[Tumor major axis(mm)]×[tumor minor axis(mm)]^2×0.5

[2] = system: BA/F3 cells expressing EML4-ALK fusion protein v1; test: Growth inhibitory activity against EML4-ALK fusion protein-dependent cells; type: cell-based, mouse; conditions: growth of EML4-ALK fusion protein v1-expressing BA/F3 cells, cultured 2 days
Procedure: EML4-ALK fusion protein v1-expressing BA/F3 cells can grow in the absence of IL-3. In other words, they are cells that EML4-ALK fusion protein v1-dependently grow.
In a 96-well plate (Iwaki), BA/F3 cells expressing EML4-ALK fusion protein v1 were seeded at 500 cells per well in RPMI1640 medium (Invitrogen) containing 10% fetal bovine serum, followed by addition of a test compound (final concentration: 10 μM to 0.1 nM). As a negative control, DMSO used as a solvent of the test compound was added. Then, the cells were cultured under 5% CO2 at 37° C. for 2 days. A cell counting reagent (AlmarBlue; Biosource) was added, and the cells were cultured for 150 minutes, followed by measurement of fluorescence intensity with a […] (Safire; Tecan) in accordance with instructions attached to the reagent.

[3] = molecular target: EML4-ALK fusion protein v1 (Homo sapiens (Human), UniProt Q9UM73); test: Inhibitory activity against the kinase activity of EML4-ALK fusion protein (HTRF KinEASE-TK); type: biochemical; conditions: ATP 100 μM, reaction 1 hour
Chain of EML4-ALK fusion protein v1 (Q9UM73 other isoform, or with tags, fused parts or gaps): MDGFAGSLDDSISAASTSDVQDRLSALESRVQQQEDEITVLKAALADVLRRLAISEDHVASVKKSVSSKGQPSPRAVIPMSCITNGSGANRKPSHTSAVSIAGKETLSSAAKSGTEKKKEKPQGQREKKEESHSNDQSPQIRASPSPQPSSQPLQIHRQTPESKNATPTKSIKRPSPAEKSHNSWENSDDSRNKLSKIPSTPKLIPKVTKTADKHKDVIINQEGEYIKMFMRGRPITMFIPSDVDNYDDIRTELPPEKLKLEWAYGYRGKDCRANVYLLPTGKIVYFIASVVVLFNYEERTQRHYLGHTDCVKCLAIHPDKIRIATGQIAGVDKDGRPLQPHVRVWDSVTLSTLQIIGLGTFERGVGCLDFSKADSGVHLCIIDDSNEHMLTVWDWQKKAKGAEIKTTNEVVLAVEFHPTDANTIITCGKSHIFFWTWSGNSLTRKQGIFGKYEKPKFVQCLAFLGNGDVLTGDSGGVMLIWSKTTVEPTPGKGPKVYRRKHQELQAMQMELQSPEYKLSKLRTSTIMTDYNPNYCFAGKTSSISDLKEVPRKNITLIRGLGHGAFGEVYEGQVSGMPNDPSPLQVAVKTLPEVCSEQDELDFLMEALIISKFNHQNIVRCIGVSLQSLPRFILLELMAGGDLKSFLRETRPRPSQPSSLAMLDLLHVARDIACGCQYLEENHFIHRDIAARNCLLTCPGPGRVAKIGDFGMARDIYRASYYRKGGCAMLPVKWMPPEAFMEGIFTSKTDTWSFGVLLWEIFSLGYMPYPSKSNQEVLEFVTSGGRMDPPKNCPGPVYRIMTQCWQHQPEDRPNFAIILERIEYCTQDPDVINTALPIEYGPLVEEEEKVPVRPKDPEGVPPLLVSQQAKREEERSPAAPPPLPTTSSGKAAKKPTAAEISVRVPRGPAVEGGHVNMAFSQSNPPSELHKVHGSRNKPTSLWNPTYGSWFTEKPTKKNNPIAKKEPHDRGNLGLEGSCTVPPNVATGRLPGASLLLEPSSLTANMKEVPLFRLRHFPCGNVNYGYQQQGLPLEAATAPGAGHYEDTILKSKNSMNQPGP
Source text: A recombinant retrovirus was created from expression plasmid FLAG-EML4-ALKv1/pMX-iresCD8 in which cDNA for EML4-ALK fusion protein v1 was integrated, and injected into mouse lymphoid cell line BA/F3 cells. Using a magnetic bead reagent for cell separation and a purification column (anti-CD8 monoclonal antibody immobilized on magnetic beads and a MiniMACS purification column; both are products of Miltenyi Biotec Inc.), cell surface CD8-expressing cells were purified to establish EML4-ALK fusion protein v1-expressing BA/F3 cells. From the cells, EML4-ALK fusion protein v1 was purified and subjected to kinase activity evaluation. EML4-ALK fusion protein v1 was investigated for its phosphorylation activity toward a peptide substrate by using a kinase activity detection kit (HTRF KinEASE-TK; Cisbio Inc.). […] The ATP concentration used was 100 μM.

[4] = system: EML4-ALK fusion protein v1 expressing 3T3 cells; test: Antitumor test (in vivo) on EML4-ALK fusion protein v1 expressing 3T3 cells; conditions: oral 10 mg/kg once a day for 5 days, Balb/c nude mice, EML4-ALK v1 3T3 tumor; for rate of regression (tumor volume): values marked (regression)
Source text: Expression plasmid EML4-ALKv1/pMXS in which cDNA for EML4-ALK fusion protein v1 was integrated was trasfected into 3T3 fibroblast cells by the phosphate calcium method to thereby establish EML4-ALK fusion protein v1 expressing 3T3 cells. 3×10^6 cells of EML4-ALK fusion protein v1 expressing 3T3 cells suspended in PBS were inoculated subcutaneously by injection to the back of 5 weeks old male Balb/c nude mice (Charles River Japan, Inc.). After 7 days of the inoculation, the administration of test compound was initiated. The test was conducted in the solvent group and the compound group, 4 animals per group. The test compound was suspended in a solvent composed of 0.5% methylcellulose and administered orally at a dose of 10 mg/kg. Administrations were performed once a day for 5 days, and body weight and tumor size were measured every other day. Tumor volume was calculated using the following formula. [Tumor volume(mm^3)]=[Tumor major axis(mm)]×[tumor minor axis(mm)]^2×0.5
When regression of tumor volume is induced from the day of starting administration, the tumor volume on the day of starting administration and the state in which the tumor disappeared were assumed to be 0% regression and 100% regression, respectively, and the rate of regression of the test compound was calculated.

Compound | growth inhibition against NCI-H2228 cells (tumor) compared with the solvent group [1] | IC50 ([2]; Mus musculus, BaF3, 48 h) [nM] | IC50 [3] [nM] | inhibition rate (tumor volume) [4] [%] | rate of regression (tumor volume) [4] | IC50 [2] [nM]
NC(=O)c1cnc(N[C@@H]2CCCC[C@@H]2N)nc1Nc1ccc(-c2ccc(N3CCOCC3)cc2)cc1 (racemic) [Compound X, rac-2-{[(1R,2S)-2-aminocyclohexyl]amino}-4-{[4′-(morpholin-4-yl)biphenyl-4-yl]amino}pyrimidine-5-carboxamide, reference compound] | no significant growth inhibition | 821 | 220 | – | – | –
CCc1nc(C(N)=O)c(Nc2cccc(S(C)(=O)=O)c2)nc1N[C@H]1CC[C@H](O)CC1 [Example 86] | – | 68 | 17 | – | – | –
CCc1nc(C(N)=O)c(Nc2ccc(N3CCC(N4CCN(C)CC4)CC3)cc2OC)nc1N[C@H]1CC[C@H](O)CC1 [Example 284] | – | 85 | 8.9 | – | – | –
CCc1nc(C(N)=O)c(Nc2ccc(N3CCN(C)CC3)cc2)nc1N[C@H]1CC[C@H](O)CC1 [Example 325] | – | 20 | 5.3 | – | – | –
CCc1nc(C(N)=O)c(Nc2ccc3cnn(C)c3c2)nc1N[C@H]1CC[C@H](O)CC1 [Example 328] | – | 76 | – | – | – | –
CCc1nc(C(N)=O)c(Nc2ccc(N3CCC(N4CCN(C)CC4)CC3)c(OC)c2)nc1N[C@H]1CC[C@H](O)CC1 [Example 340] | – | 9.5 | 0.37 | – | – | –
CCc1nc(C(N)=O)c(Nc2ccc(N3CCC(N4CCN(C)CC4)CC3)cc2)nc1N[C@H]1CC[C@H](O)CC1 [Example 341] | – | 11 | 2.8 | – | – | –
CC(C)c1nc(C(N)=O)c(Nc2ccc(N3CCN(C)CC3)cc2)nc1N[C@H]1CC[C@H](O)CC1 [Example 343, 5-[(trans-4-hydroxycyclohexyl)amino]-6-isopropyl-3-{[4-(4-methylpiperazin-1-yl)phenyl]amino}pyrazine-2-carboxamide] | – | 11 | 2.1 | – | – | –
CCc1nc(C(N)=O)c(Nc2ccc(N3CCN(C)CC3)c(C(F)(F)F)c2)nc1N[C@H]1CC[C@H](O)CC1 [Example 354] | – | 8.6 | 0.77 | – | – | –
CCc1nc(C(N)=O)c(Nc2ccc(N3CCN(C)CC3)c(OC)c2)nc1N[C@H]1CC[C@H](O)CC1 [Example 355] | – | 9.2 | 0.33 | – | – | –
CCc1nc(C(N)=O)c(Nc2ccc(N3CCC(N4CCN(C)CC4)CC3)c(C(F)(F)F)c2)nc1N[C@H]1CC[C@H](O)CC1 [Example 370] | – | 4.9 | 0.65 | 81 | – | –
CCc1nc(C(N)=O)c(Nc2ccc(N3CCN(C)CC3)c(C)c2)nc1N[C@H]1CC[C@H](O)CC1 [Example 377] | – | 6.9 | 0.24 | – | – | –
CCc1nc(C(N)=O)c(Nc2ccc(N3CCC(N4CCN(C)CC4)CC3)c(C)c2)nc1N[C@H]1CC[C@H](O)CC1 [Example 378] | – | 6.1 | 0.26 | 92 | – | –
CCc1nc(C(N)=O)c(Nc2ccc(OC)c(N3CCN(C)CC3)c2)nc1N[C@H]1CC[C@H](O)CC1 [Example 383] | – | 5.9 | 0.23 | – | – | –
CC(C)c1nc(C(N)=O)c(Nc2ccc(N3CCC(N4CCN(C)CC4)CC3)c(C(F)(F)F)c2)nc1N[C@H]1CC[C@H](O)CC1 [Example 388] | – | 4.1 | 0.17 | – | – | –
CCc1nc(C(N)=O)c(Nc2ccc(N3CCN(C)CC3)c(C)c2)nc1N[C@H]1CC[C@@](C)(O)CC1 [Example 391] | – | 6.5 | 0.22 | – | – | –
CCc1nc(C(N)=O)c(Nc2ccc(N3CCC(N4CCN(C)CC4)CC3)c(C)c2)nc1N[C@H]1CC[C@@](C)(O)CC1 [Example 392] | – | 6.3 | 0.21 | – | 28 (regression) % | –
CCc1nc(C(N)=O)c(Nc2ccc(N3CCN(CC4CC4)CC3)c(C(F)(F)F)c2)nc1N[C@H]1CC[C@H](O)CC1 [Example 399] | – | 11 | 0.94 | – | – | –

Compound | growth inhibition against NCI-H2228 cells (tumor) compared with the solvent group [1] | IC50 ([2]; Mus musculus, BaF3, 48 h) [nM] | IC50 [3] [nM] | inhibition rate (tumor volume) [4] [%] | rate of regression (tumor volume) [4] | IC50 [2] [nM]
CCc1nc(C(N)=O)c(Nc2ccc(N3CCC(N(C)C)C3)c(C(F)(F)F)c2)nc1N[C@H]1CC[C@H](O)CC1 (stereo partly drawn) [Example 406] | – | 9.8 | 0.34 | – | – | –
CCc1nc(C(N)=O)c(Nc2ccc(N3CCN(C(C)C)CC3)c(C)c2)nc1N[C@H]1CC[C@H](O)CC1 [Example 426] | – | 11 | 0.49 | 81 | – | –
CCOc1cc(Nc2nc(N[C@H]3CC[C@H](O)CC3)c(CC)nc2C(N)=O)ccc1N1CCC(N2CCN(C)CC2)CC1 [Example 459] | – | 8.1 | 0.26 | – | – | –
CCc1nc(C(N)=O)c(Nc2ccc(N3CCC(N4CCN(C)CC4)CC3)c(C)c2)nc1N[C@H]1CC[C@](C)(O)CC1 [Example 466] | – | 9.3 | 0.93 | – | 54 (regression) % | –
CCc1nc(C(N)=O)c(Nc2ccc(N3CCC(N4CCN(C)CC4)CC3)c(C)c2)nc1NC1CCC(O)(CC)CC1 (stereo not drawn) [Example 490] | – | 18 | 3.1 | – | – | –
CCc1nc(C(N)=O)c(Nc2ccc(N3CCC(N4CCN(C)CC4)CC3)c(C)c2)nc1NC1CCC(O)(CC)CC1 (stereo not drawn) [Example 491] | – | – | 2.8 | – | – | 16
CCc1nc(C(N)=O)c(Nc2ccc(N3CCC(N4CCN(C)CC4)CC3)c(C)c2)nc1NC1CCC(O)(C(C)C)CC1 (stereo not drawn) [Example 493] | – | – | 2.6 | – | – | 19
CCc1nc(C(N)=O)c(Nc2ccc(N3CCC(N4CCN(C)CC4)CC3)c(C)c2)nc1NC1CCC(O)(C(C)C)CC1 (stereo not drawn) [Example 494] | – | – | 4.1 | – | – | 42
CCc1nc(C(N)=O)c(Nc2ccc(N3CCC(N4CCN(C)CC4)CC3)c(C)c2)nc1NC1CCOCC1 [Example 512] | – | 19 | 1.5 | – | – | –
Cc1cc(Nc2nc(N[C@H]3CC[C@H](O)CC3)c(Cl)nc2C(N)=O)ccc1N1CCC(N2CCN(C)CC2)CC1 [Example 538] | – | 7.7 | 2.3 | – | – | –
CCc1nc(C(N)=O)c(Nc2ccc(N3CCN(C)CC3)cc2)nc1NC1CCOCC1 [Example 545] | – | 25 | 11 | – | – | –
CCc1nc(C(N)=O)c(Nc2ccc(N3CCC(N4CCN(C)CC4)CC3)cc2)nc1NC1CCOCC1 [Example 546] | – | 23 | 7.8 | 79 | – | –
CCc1nc(C(N)=O)c(Nc2ccc(N3CCC(N4CCN(C)CC4)CC3)c(OC)c2)nc1NC1CCOCC1 [Example 547] | – | 5.7 | – | – | – | –
CCc1nc(C(N)=O)c(Nc2ccc(N3CCN(C)CC3)c(F)c2)nc1NC1CCOCC1 [Example 550] | – | 39 | 11 | – | – | –
COc1cc(Nc2nc(NC3CCOCC3)c(C(C)C)nc2C(N)=O)ccc1N1CCN(C)CC1 [Example 553] | – | – | – | 63 | – | –
CC(C)c1nc(C(N)=O)c(Nc2ccc(N3CCN(C)CC3)cc2)nc1NC1CCOCC1 [Example 554] | – | 14 | 4.5 | – | – | –
CCc1nc(C(N)=O)c(Nc2ccc(N3CCN(C4CCN(C)CC4)CC3)c(C)c2)nc1NC1CCOCC1 [Example 558] | – | 16 | 2.2 | – | 37 (regression) % | –
